From patent EP0458363B1, “Fluorinated bis(hydroxymethyl) cyclobutyl purines and pyrimidines” (E.R. SQUIBB & SONS, INC., priority 1990, dated 1991)
Read-outs that look alike come from different tables or passages of the source.

What was measured:
Type in all cases: cell-based
[1] = system: VZV (varicella zoster virus, strain ELLEN); test: VZV antiviral plaque reduction assay in cell culture; details: WI-38 cell culture monolayers, at least 50% plaque reduction, 6-7 days incubation at 37°C, read-out: ID₅₀(µM) for the following viruses VZV
Protocol: (§1) Assays were performed in cell culture systems to determine the concentrations of compounds that are effective in preventing several kinds of viral infections.
(§2) HSV-1 (herpes simplex virus type 1, strain Schooler), HSV-2 (herpes simplex virus type 2, strain 186), VZV (varicella zoster virus, strain ELLEN), HCMV (human cytomegalovirus, strain AD 169), MuLV (murine leukemia virus, strain CAS).
(§3) HSV-1, HSV-2, HCMV, and VZV antiviral assays: Virus was adsorbed to WI-38 cell culture monolayers in 6 well culture plates (Costar, Cambridge, MA) for 1 hour prior to addition of maintenance medium containing duplicate dilutions of the test compound. Inhibition of plaque development was evaluated on fixed and stained monolayers after 4 days incubation at 37°C for HSV-1 and HSV-2 and after 6-7 days incubation at 37°C for HCMV and VZV. ID₅₀ values were determined from the drug concentration which conferred at least a 50% plaque reduction compared to virus controls.

[2] = system: MuLV (murine leukemia virus, strain CAS); test: MuLV antiviral assay (XC syncytial plaque assay); details: SC1, SC-1 cells, XC cell overlay, syncytial plaques counted, read-out: ID₅₀(µM) for the following viruses MuLV
Protocol: as §1, §2
MuLV antiviral assay: Antiviral assays using MuLV were performed with some modification, as described by Rowe et al. and Shannon et al.. SC-1 cells were planted at approximately 2 x 10⁵ cell per well in 6 well plates. After overnight incubation at 37°C, the cell cultures were sensitised with DEAS-Dextran for one hour at 37°C, rinsed and inoculated with MuLV. Cultures were re-fed with growth medium containing different concentrations of the test compound. After three more days at 37°C, cultures were re-fed with fresh medium plus test compounds and incubated at 37°C for an additional 3 days. Cultures were then washed to remove medium, ultraviolet light irradiated, and planted with approximately 5 x 10⁵ XC cells per well in cell growth medium containing the appropriate concentration of the test compound. […] Finally the cultures were rinsed, stained and syncytial plaques were counted. […]

[3] = system: HSV-1 (herpes simplex virus type 1, strain Schooler); test: HSV-1 antiviral plaque reduction assay in cell culture; details: WI-38 cell culture monolayers, at least 50% plaque reduction, 4 days incubation at 37°C, read-out: ID₅₀(µM) for the following viruses HSV-1
Protocol: as §1, §2, §3

[4] = system: HCMV (human cytomegalovirus, strain AD 169); test: HCMV antiviral plaque reduction assay in cell culture; details: WI-38 cell culture monolayers, at least 50% plaque reduction, 6-7 days incubation at 37°C, read-out: ID₅₀(µM) for the following viruses HCMV
Protocol: as §1, §2, §3

[5] = system: HSV-2 (herpes simplex virus type 2, strain 186); test: HSV-2 antiviral plaque reduction assay in cell culture; details: WI-38 cell culture monolayers, at least 50% plaque reduction, 4 days incubation at 37°C, read-out: ID₅₀(µM) for the following viruses HSV-2
Protocol: as §1, §2, §3

`Nc1nc2c(ncn2[C@@H]2[C@@H](F)[C@H](CO)[C@H]2CO)c(=O)[nH]1` (racemic) [Compound I, (1α,2β,3α,4β)-2-Amino-9-[2-fluoro-3,4-bis(hydroxymethyl)cyclobutyl]-1,9-dihydro-6H-purin-6-one] showed an IC50 ([1]; Human alphaherpesvirus 3) of 1.8 to 3.5 µM, an IC50 [2] of 3.5 to 7 µM and an IC50 ([3]; Human alphaherpesvirus 1, 96 h) of 0.7 to 1.8 µM. It also gave an IC50 ([4]; Human betaherpesvirus 5) of 3.5 to 35 µM and an IC50 ([5]; Human alphaherpesvirus 2, 96 h) of 0.7 µM.
In the case of `Nc1ncnc2c1ncn2[C@@H]1[C@@H](F)[C@H](CO)[C@H]1CO` (racemic) [Compound III, (1α,2β,3α,4β)-3-(6-Amino-9H-purin-9-yl)-4-fluoro-1,2-cyclobutanedimethanol], the IC50 ([1]; Human alphaherpesvirus 3) is reported as 37 µM, the IC50 ([3]; Human alphaherpesvirus 1, 96 h) is reported as 37 µM and the IC50 ([4]; Human betaherpesvirus 5) is reported as 37 µM. It also gave an IC50 ([5]; Human alphaherpesvirus 2, 96 h) of 7.5 to 19 µM.
`Nc1nc2c(ncn2[C@@H]2[C@@H](F)[C@H](CO)[C@H]2CO)c(=O)[nH]1` [Compound II, [1S-(1α,2β,3α,4β)]-2-Amino-9-[2-fluoro-3,4-bis(hydroxymethyl)cyclobutyl]-1,9-dihydro-6H-purin-6-one] was tested, and the IC50 [1] was no more than 0.7 µM, the IC50 [3] was 0.7 to 1.8 µM and the IC50 [4] was 18 to 35 µM. It also gave an IC50 [5] of 0.4 to 0.7 µM.
In the case of `O=c1[nH]c(=O)n([C@@H]2[C@@H](F)[C@H](CO)[C@H]2CO)cc1/C=C/Br` [Compound IV, [1S-(1α(E),2β,3α,4β)]-1-[2-fluoro-3,4-bis(hydroxymethyl)cyclobutyl]-5-(2-bromoethenyl)-2,4-(1H,3H)-pyrimidinedione], the IC50 ([1]; Human alphaherpesvirus 3) is reported as 28.6 to 286 µM, the IC50 ([3]; Human alphaherpesvirus 1, 96 h) is reported as greater than 286 µM and the IC50 ([4]; Human betaherpesvirus 5) is reported as greater than 286 µM. It also gave an IC50 ([5]; Human alphaherpesvirus 2, 96 h) greater than 286 µM.
Molecule `O=c1[nH]c(=O)n([C@@H]2[C@@H](F)[C@H](CO)[C@H]2CO)cc1/C=C/I` [Compound V, [1S-(1α(E),2β,3α,4β)]-1-[2-fluoro-3,4-bis(hydroxymethyl)cyclobutyl]-5-(2-iodoethenyl)-2,4-(1H,3H)-pyrimidinedione] has an IC50 ([1]; Human alphaherpesvirus 3) of 2.5 to 25.2 µM, an IC50 ([3]; Human alphaherpesvirus 1, 96 h) greater than 252 µM and an IC50 ([4]; Human betaherpesvirus 5) greater than 252 µM. It also gave an IC50 ([5]; Human alphaherpesvirus 2, 96 h) greater than 252 µM.
